IC50 data for 33 molecules are collected here from US9758492B2, “IDO inhibitors” (Bristol-Myers Squibb Company, priority 2013, dated 2017).

The experiment addresses IDO (Homo sapiens, UniProt P14902). The experiment can be described thus: LLE_IDO_ABS_DR (IDO assay).

Sequence of IDO (P14902 whole entry): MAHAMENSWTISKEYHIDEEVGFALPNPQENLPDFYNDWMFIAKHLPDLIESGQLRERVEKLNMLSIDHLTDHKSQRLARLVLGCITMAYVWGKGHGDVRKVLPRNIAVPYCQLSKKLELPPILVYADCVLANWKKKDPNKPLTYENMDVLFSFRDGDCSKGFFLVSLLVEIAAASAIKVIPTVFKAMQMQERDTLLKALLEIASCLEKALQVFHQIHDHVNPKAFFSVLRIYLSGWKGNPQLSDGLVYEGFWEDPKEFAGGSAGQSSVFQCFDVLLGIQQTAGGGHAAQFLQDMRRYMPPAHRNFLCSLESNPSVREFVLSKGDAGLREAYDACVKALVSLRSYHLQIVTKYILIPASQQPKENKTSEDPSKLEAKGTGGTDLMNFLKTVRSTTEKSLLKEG

In turn, `Cc1ccc(NC(=O)Nc2cc(-c3cc(F)ccc3C(=O)O)ccc2N(CCC(F)(F)F)Cc2ccccc2)cc1` [Example 9, 4′-(Benzyl(3,3,3-trifluoropropyl)amino)-5-fluoro-3′-(3-(p-tolyl)ureido)-[1,1′-biphenyl]-2-carboxylic acid] came in with an IC50 of 350 nM. This lies in the sub-micromolar range.

Regarding `CC(C)CN(CC(C)C)c1ccc(-c2ccccc2-c2nnn[nH]2)cc1NC(=O)Nc1ccc(F)cc1OC(C)C` [Example 272, 1-(4-(diisobutylamino)-2′-(1H-tetrazol-5-yl)-[1,1′-biphenyl]-3-yl)-3-(4-fluoro-2-isopropoxyphenyl)urea], half-maximal inhibition (IC50) was put at 2720 nM.

The molecule `CC(C)CN(CC(C)C)c1ccc(-c2ccccc2-c2nnn[nH]2)cc1NC(=O)Nc1ccc(S(C)(=O)=O)cc1F` [Example 284, 1-(4-(diisobutylamino)-2′-(1H-tetrazol-5-yl)-[1,1′-biphenyl]-3-yl)-3-(2-fluoro-4-(methylsulfonyl)phenyl)urea] yielded an IC50 of 2090 nM.

For the molecule `COc1ccc(-c2ccc(N(C)c3ccccc3C(C)(C)C)c(NC(=O)Nc3ccccc3F)c2)cc1C(=O)O` [Example 209, 4′-((2-(tert-butyl)phenyl) (methyl)amino)-3′-(3-(2-fluorophenyl)ureido)-4-methoxy-[1,1′-biphenyl]-3-carboxylic acid], the IC50 stood at 560 nM.

`Cc1ccc(NC(=O)Nc2cc(-c3ccccc3-c3nnn[nH]3)ccc2N(CCC(C)C(F)(F)F)CC(C)C)cc1` (stereo not drawn) [Example 202, 1-(4-(isobutyl(4,4,4-trifluoro-3-methylbutyl)amino)-2′-(1H-tetrazol-5-yl)-[1,1′-biphenyl]-3-yl)-3-(p-tolyl)urea]: the midpoint of inhibition, the IC50, lay at 10 nM.

In the case of `CC(C)CN(CC(C)C)c1ccc(-c2ccccc2-c2nnn[nH]2)cc1NC(=O)Nc1cccc(F)c1O` [Example 275, 1-(4-(diisobutylamino)-2′-(1H-tetrazol-5-yl)-[1,1′-biphenyl]-3-yl)-3-(3-fluoro-2-hydroxyphenyl)urea], the IC50 is 500 nM. Compared with the last molecule, the IC50 is about 50-fold higher.

With `Cc1ccc(NC(=O)Nc2cc(-c3ccccc3-c3nnn[nH]3)ccc2N2CCC(F)(F)C2)cc1` [Example 315, 1-(4-(3,3-difluoropyrrolidin-1-yl)-2′-(1H-tetrazol-5-yl)-[1,1′-biphenyl]-3-yl)-3-(p-tolyl)urea], the IC50 was 7770 nM.

As for `CC(C)CN(c1ccc(-c2ccccc2-c2nnn[nH]2)cc1NC(=O)Nc1ccccc1F)C1CCCCC1` [Example 121, 1-(4-(cyclohexyl(isobutyl)amino)-2′-(1H-tetrazol-5-yl)biphenyl-3-yl)-3-(2-fluorophenyl)urea], the IC50 came out at 2.59 nM.

Consider `CC(C)CN(CC(C)C)c1ccc(-c2ccccc2-c2nnn[nH]2)cc1NC(=O)Nc1ccc2sccc2c1` [Example 259, 1-(benzo[b]thiophen-5-yl)-3-(4-(diisobutylamino)-2′-(1H-tetrazol-5-yl)-[1,1′-biphenyl]-3-yl)urea], for which the IC50 was 2.44 nM.

For `COc1cc(NC(=O)Nc2cc(-c3ccccc3-c3nnn[nH]3)ccc2N(CC(C)C)CC(C)C)ccc1C#N` [Example 261, 1-(4-cyano-3-methoxyphenyl)-3-(4-(diisobutylamino)-2′-(1H-tetrazol-5-yl)-[1,1′-biphenyl]-3-yl)urea], the IC50 came to 4310 nM.

`CNC(=O)c1ccccc1NC(=O)Nc1cc(-c2ccccc2-c2nnn[nH]2)ccc1N(CC(C)C)CC(C)C` [Example 248, 2-(3-(4-(diisobutylamino)-2′-(1H-tetrazol-5-yl)-[1,1′-biphenyl]-3-yl)ureido)-N-methylbenzamide]: half-maximal inhibition (IC50) was put at 5070 nM.

In the case of `CCn1nc(C)c(-c2ccc(N(CC(C)C)CC(C)C)c(NC(=O)Nc3ccc(C)cc3)c2)c1C(=O)O` [Example 102, 4-(4-(diisobutylamino)-3-(3-p-tolylureido)phenyl)-1-ethyl-3-methyl-1H-pyrazole-5-carboxylic acid], inhibition was half-maximal at 210 nM (IC50).

For the molecule `CC(C)CN(c1ccc(-c2ccccc2C(=O)O)cc1NC(=O)Nc1ccccc1F)C1CCC(F)(F)CC1` [Example 510, 4′-((4,4-Difluorocyclohexyl)(isobutyl)amino)-3′-(3-(2-fluorophenyl)ureido)-[1,1′-biphenyl]-2-carboxylic acid], 1.38 nM corresponded to half-maximal inhibition (IC50).

Molecule `Cc1ccc(NC(=O)Nc2cc(-c3ccccc3-c3nnn[nH]3)ccc2N2CCC(c3ccccc3)C2)cn1` (racemic) [Example 368, (±)-1-(6-Methylpyridin-3-yl)-3-(4-(3-phenylpyrrolidin-1-yl)-2′-(1H-tetrazol-5-yl)-[1,1′-biphenyl]-3-yl)urea] yielded an IC50 of 2500 nM.

Take `CC(C)CN(c1ccc(-c2cc(F)ccc2C(=O)O)cc1NC(=O)Nc1ccccc1F)C1CCCC1` [Example 176, 4′-(cyclopentyl(isobutyl)amino)-5-fluoro-3′-(3-(2-fluorophenyl)ureido) biphenyl-2-carboxylic acid]: the IC50 was 7.86 nM.

Turning to `CC(C)CN(CCC1CC1)c1ccc(-c2ccccc2C(=O)O)cc1NC(=O)Nc1ccccc1F` [Example 134, 4′-((2-cyclopropylethyl) (isobutyl)amino)-3′-(3-(2-fluorophenyl)ureido)biphenyl-2-carboxylic acid], the 50% inhibitory concentration (IC50) stood at 30 nM.

Turning to `CC(C)CN(c1ccc(-c2ccccc2C(=O)O)cc1NC(=O)Nc1ccc(OC(F)(F)F)cc1)C1CCC(F)(F)CC1` [Example 511, 4′-((4,4-Difluorocyclohexyl)(isobutyl)amino)-3′-(3-(4-(trifluoromethoxy)phenyl)ureido)-[1,1′-biphenyl]-2-carboxylic acid], the IC50 amounted to 8.1 nM. This IC50 is about 3.7-fold lower than that of the molecule before.

Regarding `CC(C)CN(c1ccc(-c2ccc(Cl)cc2C(=O)O)cc1NC(=O)Nc1ccccc1F)C1CCCCC1` [Example 123, 4-chloro-4′-(cyclohexyl(isobutyl)amino)-3′-(3-(2-fluorophenyl)ureido) biphenyl-2-carboxylic acid], the IC50 was 20 nM.

In the case of `O=C(Nc1ccc(C(F)(F)F)cc1F)Nc1cc(-c2ccccc2-c2nnn[nH]2)ccc1N1CCCc2ccccc21` [Example 364, 1-(4-(3,4-Dihydroquinolin-1(2H)-yl)-2′-(1H-tetrazol-5-yl)-[1,1′-biphenyl]-3-yl)-3-(2-fluoro-4-(trifluoromethyl)phenyl)urea], the midpoint of inhibition, the IC50, lay at 4670 nM. Against the preceding molecule, the IC50 is about 230-fold higher.

`CC(C)CN(CC(C)C)c1ccc(-c2ccccc2-c2nnn[nH]2)cc1NC(=O)Nc1c(F)cc(Cl)cc1F` [Example 243, 1-(4-chloro-2,6-difluorophenyl)-3-(4-(diisobutylamino)-2′-(1H-tetrazol-5-yl)-[1,1′-biphenyl]-3-yl)urea] came in with an IC50 of 0.76 nM.

Turning to `Cc1ccc(NC(=O)Nc2cc(-c3ccccc3C(=O)O)ccc2N(CCC2CC2)CC(C)C)cc1` [Example 132, 4′-((2-cyclopropylethyl) (isobutyl)amino)-3′-(3-p-tolylureido) biphenyl-2-carboxylic acid], it took 50 nM to reach half-maximal inhibition (IC50). Against the preceding molecule, the IC50 is about 66-fold higher.

In the case of `CC(C)CN(CC(C)C)c1ccc(-c2ccccc2-c2nnn[nH]2)cc1NC(=O)Nc1cccc(-c2cnco2)c1` [Example 253, 1-(4-(diisobutylamino)-2′-(1H-tetrazol-5-yl)-[1,1′-biphenyl]-3-yl)-3-(3-(oxazol-5-yl)phenyl)urea], the IC50 turned out to be 2490 nM.

With `[2H]C([2H])(C(C)C)N(c1ccc(-c2ccccc2C(=O)O)cc1NC(=O)Nc1ccc(C)cc1)C1CCCCC1` [Example 30, 4′-(Cyclohexyl(1,1-dideutero-2-methylpropyl)amino)-3′-(3-p-tolylureido)biphenyl-2-carboxylic acid], the IC50 amounted to 5.19 nM.

Molecule `Cc1ccc(NC(=O)Nc2cc(-c3cc(F)ccc3C(=O)O)ccc2N(CCC(F)(F)F)CC(C)C)cc1` [Example 200, 5-fluoro-4′-(isobutyl (3,3,3-trifluoropropyl)amino)-3′-(3-(p-tolyl)ureido)-[1,1′-biphenyl]-2-carboxylic acid] came in with an IC50 of 110 nM. This IC50 lies about 21-fold higher than the previous one.

The molecule `Cc1ccc(NC(=O)Nc2cc(-c3ccccc3C(=O)O)ccc2N(CCC(F)(F)F)Cc2ccccc2)cc1` [Example 8, 4′-(Benzyl(3,3,3-trifluoropropyl)amino)-3′-(3-(p-tolyl)ureido)-[1,1′-biphenyl]-2-carboxylic acid] had an IC50 of 180 nM.

In the case of `Cc1ccc(NC(=O)Nc2cc(-c3ccccc3-c3nnn[nH]3)ccc2N(CC(C)C)CC2CC(F)(F)C2)cc1` [Example 381], half-maximal inhibition (IC50) required 110 nM.

The molecule `O=C(Nc1ccc(F)nc1)Nc1cc(-c2ccccc2-c2nnn[nH]2)ccc1N1CCCc2ccccc21` [Example 365, 1-(4-(3,4-Dihydroquinolin-1(2H)-yl)-2′-(1H-tetrazol-5-yl)-[1,1′-biphenyl]-3-yl)-3-(6-fluoropyridin-3-yl)urea] gave an IC50 of 5060 nM.

The molecule `COc1ccc(-c2ccc(N(CCC(F)(F)F)CC3CC3)c(NC(=O)Nc3ccc(C)cc3)c2)cc1C(=O)O` [Example 65, 4′-((cyclopropylmethyl) (3,3,3-trifluoropropyl)amino)-4-methoxy-3′-(3-p-tolylureido) biphenyl-3-carboxylic acid] gave an IC50 of 3700 nM.

`O=C(Nc1ccc(OC(F)(F)F)cc1)Nc1cc(-c2ccccc2-c2nnn[nH]2)ccc1N1CCCc2ccccc21` [Example 363, 1-(4-(3,4-Dihydroquinolin-1(2H)-yl)-2′-(1H-tetrazol-5-yl)-[1,1′-biphenyl]-3-yl)-3-(4-(trifluoromethoxy)phenyl)urea] came in with an IC50 of 900 nM.

As for `CC(C)CN(CC(C)C)c1ccc(-c2ccccc2-c2nnn[nH]2)cc1NC(=O)Nc1cccc2c1CCC2` [Example 276, 1-(2,3-dihydro-1H-inden-4-yl)-3-(4-(diisobutylamino)-2′-(1H-tetrazol-5-yl)-[1,1′-biphenyl]-3-yl)urea], the IC50 stood at 780 nM.

`O=C(Nc1ccc(F)cc1F)Nc1cc(-c2ccccc2-c2nnn[nH]2)ccc1N(CCC(F)(F)F)Cc1ccc(F)cc1` [Example 324, 1-(2,4-difluorophenyl)-3-(4-((4-fluorobenzyl) (3,3,3-trifluoropropyl)amino)-2′-(1H-tetrazol-5-yl)-[1,1′-biphenyl]-3-yl) urea]: the IC50 was determined as 160 nM.

Take `COc1cc(NC(=O)Nc2cc(-c3ccccc3-c3nnn[nH]3)ccc2N(CC(C)C)CC(C)C)ccc1F` [Example 252, 1-(4-(diisobutylamino)-2′-(1H-tetrazol-5-yl)-[1,1′-biphenyl]-3-yl)-3-(4-fluoro-3-methoxyphenyl)urea]: the IC50 came out at 1230 nM.

On to `Cc1ccc(NC(=O)Nc2cc(-c3ccccc3-c3nnn[nH]3)ccc2N(CC(C)C)C(C)C)cc1` [Example 147, 1-(4-(isobutyl(isopropyl)amino)-2′-(1H-tetrazol-5-yl)biphenyl-3-yl)-3-p-tolylurea], for which the IC50 was 10 nM.
